{"source": "patent US8796302B2", "about": "(priority 2004, dated 2014)", "key": {"[1]": {"system": "dopaminergic neurons in mesencephalic neuron-enriched cultures", "assay": "[3H]DA uptake in neuron-enriched cultures (direct, conditioned media, reconstituted)", "assay_type": "cell-based, rat", "conditions": "for DA uptake with 3-HM-treated astroglia conditioned media: 24 h conditioning, % of non-conditioned control, vehicle conditioned 122%", "description": "Mixed-glia cultures were first prepared from brains of 1-day-old Fisher 344 rat pups, as described previously (Liu, et al. 2001). Mechanically dissociated brain cells (5×10^7) were seeded onto 150 cm^2 culture flasks in Dulbecco's modified Eagle's medium containing 10% heat-inactivated FBS, 2 mM L-glutamine, 1 mM sodium pyruvate, 100 μM non-essential amino acids, 50 U/ml penicillin, and 50 μg/ml streptomycin. The cultures were maintained at 37° C. in a humidified atmosphere of 5% CO2 and 95% air, and medium was replenished 4 days after the initial seeding. Upon reaching confluence (usually 12-14 days later), microglia were detached from astroglia by shaking the flasks for 5 hours at 180 rpm. Astroglia were then detached with trypsin-EDTA and seeded in the same culture medium. After five or more consecutive passages, cells were seeded onto 24-well plates (10^5/well) for experiments. Immunocytochemical staining of the astroglia enriched cultures with either anti-GFAP or anti-OX-42 antibody indicated astroglial purity of greater than 98% and less than 2% of microglia contamination.\nConditioned medium derived from rat primary astroglial cultures treated with vehicle (ACM) or 0.6 mM VPA (ACM-VPA) were harvested after 12, 24 and 48 hours of incubation. Midbrain neuron-enriched cultures seeded in 24-well plates at a density of 5×10^5 cells/well were treated with vehicle, VPA, ACM or ACM-VPA for 7 days. Neurotrophic effect was quantified by [^3H]DA uptake assay.\nRat mesencephalic neuron-enriched cultures are prepared from dissociated ventral mesencephalic cells from embryonic day 13-14 Fisher 344 rats were seeded first at a density of 5×10^5/well to poly-D-lysine-precoated 24-well culture plates. […] Three days later, the culture medium was replaced with the maintenance medium. Routinely, the seven-day-old neuron-enriched cultures were used for treatment. […] Of the Neu-N immunoractive neurons, 2.7-3.9% was TH-IR neurons.\nTo explore whether astroglial cells are also the main target of sodium butyrate-induced neurotrophic effect, we prepared media conditioned by incubation of astroglial cultures in the absence or presence 0.6 mM sodium butyrate. Conditioned medium derived from rat primary astroglial cultures treated with vehicle (ACM) or 0.6 mM sodium butyrate (ACM-Sodium butyrate) were harvested after 48 hours of incubation. Midbrain neuron-enriched cultures seeded in 24-well plates at a density of 5×10^5 cells/well were treated with vehicle, sodium butyrate, ACM or ACM-Sodium butyrate for 7 days. Seven days after treatment, neurotrophic effect for dopaminergic neurons was assessed by [^3H]DA uptake assays.\nVarious concentrations of 3-HM (0.1-5 μM) or vehicle were added to the following different cell cultures: neuron-enriched cultures (A); reconstituted cultures by adding 10% and 20% (5×10^4/well and 1×10^5/well) of microglia to the neuron-enriched cultures (B); reconstituted cultures by adding 40% and 50% (2×10^5/well and 2.5×10^5/well) of astroglia to the neuron-enriched cultures (C). Cultures are prepared as described in Example 25. The [^3H]DA uptake measurements were performed […] after treatment. Results were expressed as a percentage of the vehicle-treated control cultures and were the mean±SE from five (A) and four (B,C) independent experiments in triplicate. *P<0.05 and **P, 0.001 compared with the vehicle-treated control cultures. #P<0.05 compared with the augmented cultures with 40% astroglia. N, neuron-enriched cultures; N+10% (20%) MG: 10% (20%) of microglia were added back to the neuron-enriched cultures; N+40% (50%) AS: 40% (50%) of astroglia were added back to the neuron-enriched cultures.\nTo confirm the possible role of astroglia in the neurotrophic effect of 3-HM, conditioned media from astroglia-enriched cultures (prepared as described above) treated with either 3-HM (1-5 μM) or vehicle for 24 hours were prepared. […]"}, "[2]": {"system": "TH-IR (dopaminergic) neurons in mesencephalic neuron-glia cultures", "assay": "TH-IR neuron count and morphology in LPS-treated neuron-glia cultures", "assay_type": "cell-based, rat", "conditions": "for dendrite network (immunocytochemical analysis): LPS; for attenuation of LPS-induced reduction in the number of TH-IR neurons: 30 min pretreatment"}, "[3]": {"system": "dopaminergic neurons in rat primary mesencephalic neuron-glia cultures", "assay": "[3H]DA uptake in LPS-treated mesencephalic neuron-glia cultures", "assay_type": "cell-based", "conditions": "for DA uptake, post-treatment with DM: LPS 20 ng/ml 12 h then removed"}, "[4]": {"system": "dopaminergic neurons in rat primary mesencephalic neuron-glia cultures", "assay": "DA uptake / TH-IR count in neuron-glia cultures without toxin (spontaneous DA neuronal death, neurotrophic effect)", "assay_type": "cell-based", "description": "In Example 23, [^3H]DA uptake assay and immunohistochemical analysis for TH-IR neurons were used to assess the viability of DA neurons in rat primary mesencephalic neuron-glia cultures in which approximately 1% of the neurons are dopaminergic. [^3H]DA uptake assays were performed as described in Example 1.\nRat primary mesencephalic neuron-glia cultures were prepared from the ventral mesencephalic tissues of embryonic day 13-14 Fisher 344 rats. Dissociated cells were seeded at a density of 5×10^5/well to poly-D-lysine-precoated 24-well plates. Cells were maintained at 37° C. in a humidified atmosphere of 5% CO2 and 95% air, in minimal essential medium containing 10% fetal bovine serum (FBS), 10% horse serum, 1 gm/l glucose, 2 mM L-glutamine, 1 mM sodium pyruvate, 100 μM non-essential amino acids, 50 U/ml penicillin, and 50 μg/ml streptomycin. Unless otherwise indicated, seven-day-old cultures were used for treatment.\nSeven days after seeding, each well was treated with indicated concentration of VPA or its vehicle. Seven days after treatment, the viability of dopaminergic neurons was assessed by [^3H]DA uptake assays. Quantified results are expressed as mean±SEM of percentage of vehicle-treated cultures from three experiments performed in duplicate. *, p<0.05 compared with the corresponding vehicle-treated control cultures.\nNext, the rat primary mesencephalic neuron-glia cultures were treated with 0.6 mM VPA for various times to determine the treatment time-dependency. Rat primary mesencephalic neuron-glia cultures in a 24-well plate were treated with 0.6 mM VPA or its vehicle for indicated time 7 days after seeding. The viability of dopaminergic neurons was assessed by [^3H]DA uptake assays, shown in FIG. 37 or counting of TH-IR neurons, shown in FIG. 38. Quantified results are expressed as mean±SEM of percentage of vehicle-treated control cultures from three experiments performed in duplicate. *, p<0.05 compared with the corresponding vehicle-treated control cultures. […] VPA time-dependently induces survival-promoting effects against spontaneous DA neuronal death in rat primary mesencephalic neuron-glia cultures.\nRat primary mesencephalic neuron-glia cultures seeded in a 24-well culture plate at density of 5×10^5 per well were treated with indicated concentrations of sodium butyrate or its vehicle 7 days after seeding. The viability of dopaminergic neurons was assessed by DA uptake assays 7 days after sodium butyrate addition.\nMesencephalic neuron-glia cultures, prepared as described above, were pretreated with vehicle or 3-HM (1-5 μM) before the treatment of LPS (10 ng/ml). Seven days later, the degeneration of dopaminergic neurons was determined by the functional assay of [^3H]DA uptake and by the morphometric measurement of dopaminergic neurons following immunostaining with an anti-TH antibody. [^3H]DA and immunostaining are performed as described above."}}, "data": [{"smiles": "CCCC(CCC)C(=O)O", "note": "[VPA, Valproic acid]", "values": [{"measurement": "increase in DA uptake", "setting": "[1]; neuron-enriched cultures, 7 days, drug 0.6 mM or conditioned medium", "value": "less than 2 fold"}, {"measurement": "DA neuron morphology (anti-TH), VPA alone", "setting": "[2]; VPA 0.6 mM alone", "value": "promoted neurite formation and inter-neuronal networks"}, {"measurement": "TH immunostaining in cell bodies and neuronal processes", "setting": "[2]; VPA 0.6 mM, alone or with LPS, vs vehicle control", "value": "enhanced the TH immunostaining"}, {"measurement": "LPS-induced decrease of TH-ir neurons and loss of neuronal process (morphology)", "setting": "[2]; VPA 0.2-0.6 mM pretreatment, LPS 20 ng/ml", "value": "reversed by VPA pretreatment in a dose-dependent manner"}, {"measurement": "LPS-induced morphological changes of DA neurons", "setting": "[2]; VPA 0.2 to 0.6 mM, 48 hours pretreatment, LPS 10 ng/ml, 7 days", "value": "prevented by VPA pretreatment"}, {"measurement": "LPS-induced loss of TH-ir neurons", "setting": "[2]; VPA pretreatment 48 h, significant effect at 0.2, 0.4 and 0.6 mM, LPS 20 ng/ml 72 h", "value": "prevented by VPA pretreatment in a concentration-dependent manner"}, {"measurement": "DA uptake levels, VPA alone", "setting": "[3]; VPA 0.6 mM alone, no LPS", "value": "did not affect DA uptake levels"}, {"measurement": "neuroprotection against LPS neurotoxicity (DA uptake)", "setting": "[3]; VPA 0.6 mM, 6 hours pretreatment, LPS 10 ng/ml", "value": "failed to induce a significant effect"}, {"measurement": "neuroprotection against LPS neurotoxicity (DA uptake)", "setting": "[3]; VPA 0.6 mM, 12 hours pretreatment, LPS 10 ng/ml", "value": "complete neuroprotection"}, {"measurement": "neuroprotection against LPS neurotoxicity (DA uptake)", "setting": "[3]; VPA 0.6 mM, 48 hours pretreatment, LPS 10 ng/ml", "value": "further increase in DA uptake levels"}, {"measurement": "LPS-induced decrease in DA uptake", "setting": "[3]; VPA 0.6 mM, 48 h pretreatment, LPS 20 ng/ml", "value": "completely restored"}, {"measurement": "DA uptake levels vs untreated control", "setting": "[3]; VPA 0.6 mM, alone or with LPS 10 ng/ml", "value": "significantly higher than those in the untreated control"}, {"measurement": "LPS-induced reduction of DA uptake", "setting": "[3]; VPA 0.05-0.6 mM, 48 h pretreatment, LPS 20 ng/ml 3 days", "value": "concentration-dependently prevented"}, {"measurement": "LPS-induced loss of DA uptake capacity", "setting": "[3]; VPA various doses, 48 hours pretreatment, LPS 10 ng/ml 5 days", "value": "robustly blocked"}, {"measurement": "capacity of [3H]DA uptake vs vehicle-treated control", "setting": "[4]; VPA 0.6 mM for 7 days", "value": "marked increase"}, {"measurement": "number of TH-IR neurons vs vehicle-treated control", "setting": "[4]; VPA 0.6 mM for 7 days", "value": "marked increase"}, {"measurement": "spontaneous DA neuronal death (DA uptake)", "setting": "[4]; VPA 0.6 mM, 7 days", "value": "significantly protected DA neurons from spontaneous neuronal death"}]}, {"smiles": "Oc1ccc2c(c1)[C@@]13CCCC[C@H]1[C@@H](C2)NCC3", "note": "[3-HM, 3-hydroxymorphinan]", "values": [{"measurement": "DA uptake with 3-HM-treated astroglia conditioned media", "setting": "[1]; 3-HM 1 μM, 10 days", "value": 151.3, "unit": "%"}, {"measurement": "DA uptake with 3-HM-treated astroglia conditioned media", "setting": "[1]; 3-HM 2.5 μM, 10 days", "value": 160.9, "unit": "%"}, {"measurement": "DA uptake with 3-HM-treated astroglia conditioned media", "setting": "[1]; 3-HM 5 μM, 10 days", "value": 197.8, "unit": "%"}, {"measurement": "DA uptake capacity in neuron-enriched cultures", "setting": "[1]; 3-HM 0.1-5 μM, 10 days", "value": "failed to show a significant increase in the DA uptake capacity"}, {"measurement": "DA uptake, neuron-enriched cultures + microglia", "setting": "[1]; 10% or 20% of microglia added back, 3-HM-treated, 10 days", "value": "failed to increase DA uptake"}, {"measurement": "capacity of DA uptake, neuron-enriched cultures + astroglia", "setting": "[1]; 40% of astroglia added back, 3-HM-treated, 10 days", "value": 135.8, "unit": "%"}, {"measurement": "capacity of DA uptake, neuron-enriched cultures + astroglia", "setting": "[1]; 50% of astroglia added back, 3-HM-treated, 10 days", "value": 158.3, "unit": "%"}, {"measurement": "number of dopaminergic neurons", "setting": "[2]; 3-HM 5 μM pretreatment, LPS 10 ng/ml, LPS alone reduced by 51%", "value": "97 % of the vehicle-treated control cultures"}, {"measurement": "average length of dopaminergic neuronal neurites", "setting": "[2]; 3-HM pretreatment, LPS 10 ng/ml, LPS alone 43%", "value": "110 % of the vehicle-treated control cultures"}, {"measurement": "LPS-induced decrease in DA uptake", "setting": "[3]; 3-HM 5 μM, LPS 10 ng/ml, 7 days", "value": "almost back to the vehicle-treated control values"}, {"measurement": "increase of DA uptake capacity vs vehicle-treated control", "setting": "[4]; 3-HM 1-5 μM alone, 7 days", "value": "20-60%"}, {"measurement": "neurotrophic effect of compound alone in neuron-glia cultures", "setting": "[4]", "value": "significant neurotrophic effect"}]}, {"smiles": "COc1ccc2c(c1)[C@@]13CCCC[C@H]1[C@@H](C2)N(C)CC3", "note": "[DM, d-3-methoxy-N-methylmorphinan]", "values": [{"measurement": "neurotrophic effect of DM-treated astroglia conditioned media", "setting": "[1]; DM 5 μM, vs vehicle-treated conditioned cultures", "value": "failed to exhibit any neurotrophic effect"}, {"measurement": "dendrite network (immunocytochemical analysis)", "setting": "[2]; DM 10^−5 M and 10^−14 M", "value": "more elaborate dendrite network"}, {"measurement": "attenuation of LPS-induced reduction in the number of TH-IR neurons", "setting": "[2]; DM 10^−5 M, LPS 10 ng/ml", "value": 37, "unit": "%"}, {"measurement": "dendrite network (immunocytochemical analysis)", "setting": "[2]; DM 10^−10 M", "value": "failed to show improvement"}, {"measurement": "dopaminergic neuron degeneration (TH-IR neuron number)", "setting": "[2]; DM 10^−10 M, LPS 10 ng/ml", "value": "no protective effects"}, {"measurement": "attenuation of LPS-induced reduction in the number of TH-IR neurons", "setting": "[2]; DM 10^−14 M, LPS 10 ng/ml", "value": 28, "unit": "%"}, {"measurement": "LPS-induced decrease in [3H]-dopamine uptake", "setting": "[3]; DM 10^−13 and 10^−14 M, 30 min pretreatment, LPS 10 ng/ml, 7 days", "value": "equipotent neuroprotective effect"}, {"measurement": "DA uptake, post-treatment with DM", "setting": "[3]; DM 10^−5 and 10^−14 M post-treatment", "value": "showed a protective effect"}, {"measurement": "DA uptake, post-treatment with DM", "setting": "[3]; DM 10^−10 M post-treatment", "value": "but not at 10^−10 M"}, {"measurement": "neurotrophic effect of compound alone in neuron-glia cultures", "setting": "[4]", "value": "not observed"}]}]}
